In patent publication US20260008787A1, “FUSED RING KRAS INHIBITORS FOR TREATING DISEASE” (BLOSSOMHILL THERAPEUTICS, INC., priority 2022, published 2026) one finds IC50 data, which are given here for 12 molecules.

Broadly, the IC50 is the concentration at which inhibition is half-maximal. Low readings indicate higher potency, high ones lower potency.

Type in all cases: cell-based
One assay has as its system SW620 (KRAS G12V). As to the kind of experiment: Cell proliferation assay (CellTiter-Glo, 72 hours), SW620. As to conditions: Homo sapiens, SW-620, 72 h, 384-well, CellTiter-Glo 2.0. As for the experimental part: (§1) Two thousand KRAS mutant cells per well were seeded in 384-well white plate and then treated with indicated compounds for 72 hours at 37° C. and 5% CO2. Cell proliferation was measured using CellTiter-Glo 2.0 luciferase-based ATP detection assay (Promega, Madison, WI) following the manufacturer's protocol. IC50 values were determined using Prism software (GraphPad Software, San Diego, CA).
(In general: Cellular ATP, detected with luciferase, serves as a proxy for viable cell number.)

The next assay has as its system AGS (G12D). As to the kind of experiment: Cell proliferation assay (CellTiter-Glo, 72 hours), AGS. As to conditions: 72 h, 384-well, CellTiter-Glo 2.0. The procedure:
as §1

The subject of the next assay is GP2D (KRAS G12D). As to the kind of experiment: Cell proliferation assay (CellTiter-Glo, 72 hours), GP2D. As to conditions: GP2d, 72 h, 384-well, CellTiter-Glo 2.0. The procedure: as §1

As to `C#Cc1c(F)ccc2cc(O)cc(-c3nc4c5c(nc(OC[C@@]67CCCN6C[C@H](F)C7)nc5c3F)N3CC(F)CC[C@H]3CO4)c12` (stereo partly drawn) [Example 105, 4-[(4R,7S)-4,13-difluoro-16-[[(2R,8S)-2-fluoro-1,2,3,5,6,7-hexahydropyrrolizin-8-yl]methoxy]-9-oxa-2,11,15,17-tetrazatetracyclo[8.7.1.0^2,7.0^14,18]octadeca-1 (17),10 (18),11,13,15-pentaen-12-yl]-5-ethynyl-6-fluoro-naphthalen-2-ol], the IC50 in the assay on SW620 (KRAS G12V) was found to be 86.2 nM; in the assay with AGS (G12D), 81 nM; with GP2D (KRAS G12D), 21.6 nM.
As to `C#Cc1c(F)ccc2cc(O)cc(-c3nc4c5c(nc(OC[C@@]67CCCN6C[C@H](F)C7)nc5c3F)N3C=CCC[C@H]3CO4)c12` [Example 107, 5-ethynyl-6-fluoro-4-[(7S)-13-fluoro-16-[[(2R,8S)-2-fluoro-1,2,3,5,6,7-hexahydropyrrolizin-8-yl]methoxy]-9-oxa-2,11,15,17-tetrazatetracyclo [8.7.1.0^2,7.0^14,18]octadeca-1 (17),3,10 (18),11,13,15-hexaen-12-yl]naphthalen-2-ol], the IC50 in the assay on SW620 (KRAS G12V) was 1040 nM; in the assay on AGS (G12D) it was 1130 nM; in the assay with GP2D (KRAS G12D) it was 749 nM.
For `C#Cc1c(F)ccc2cc(O)cc(-c3nc4c5c(nc(OC[C@@]67CCCN6C[C@H](F)C7)nc5c3F)N(CC)CCO4)c12` [Example 108, 4-(10-ethyl-4-fluoro-2-{[(2R,7aS)-2-fluorotetrahydro-1H-pyrrolizin-7a(5H)-yl]methoxy}-9,10-dihydro-8H-7-oxa-1,3,6,10-tetraazacyclohepta[1,2,3-de]naphthalen-5-yl)-5-ethynyl-6-fluoronaphthalen-2-ol], the values for the IC50 in the assay with SW620 (KRAS G12V), in the assay on AGS (G12D) and in the assay with GP2D (KRAS G12D) were 195 nM, 42.7 nM and 13.8 nM, respectively.
In the case of `CCc1c(F)ccc2cc(O)cc(-c3nc4c5c(nc(OC[C@@]67CCCN6C[C@H](F)C7)nc5c3F)NCCC4)c12` [Example 117, 5-ethyl-6-fluoro-4-(4-fluoro-2-{[(2R,7aS)-2-fluorotetrahydro-1H-pyrrolizin-7a(5H)-yl]methoxy}-7,8,9,10-tetrahydro-1,3,6,10-tetraazacyclohepta[1,2,3-de]naphthalen-5-yl)naphthalen-2-ol], the half-maximal inhibitory concentration (IC50) in the assay with SW620 (KRAS G12V), in the assay on AGS (G12D) and in the assay with GP2D (KRAS G12D) was greater than 3000 nM each time.
Take `C#Cc1c(F)ccc2cc(O)cc(-c3nc4c5c(nc(OC[C@@]67CCCN6C[C@H](F)C7)nc5c3F)N3C[C@@](C)(O)CC[C@H]3CO4)c12` [Example 120, (8aS,11S)-5-(8-ethynyl-7-fluoro-3-hydroxynaphthalen-1-yl)-4-fluoro-2-{[(2R,7aS)-2-fluorotetrahydro-1H-pyrrolizin-7a(5H)-yl]methoxy}-11-methyl-8,8a,9,10,11,12-hexahydro-7-oxa-1,3,6,12a-tetraazabenzo[4,5]cyclohepta[1,2,3-de]naphthalen-11-ol]: the IC50 in the assay on SW620 (KRAS G12V), in the assay with AGS (G12D) and in the assay on GP2D (KRAS G12D) was greater than 3000 nM each time.
With `CCc1c(F)ccc2cc(O)cc(-c3nc4c5c(nc(OC[C@@]67CCCN6C[C@H](F)C7)nc5c3F)N(C)[C@@H](C)CO4)c12` [Example 123, 5-ethyl-6-fluoro-4-[(9S)-4-fluoro-2-{[(2R,7aS)-2-fluorotetrahydro-1H-pyrrolizin-7a(5H)-yl]methoxy}-9,10-dimethyl-9,10-dihydro-8H-7-oxa-1,3,6,10-tetraazacyclohepta[1,2,3-de]naphthalen-5-yl]naphthalen-2-ol], the figures for the IC50 with SW620 (KRAS G12V), with AGS (G12D) and in the assay on GP2D (KRAS G12D) were 150 nM, 375 nM and 40.5 nM, respectively.
`CCc1c(F)ccc2cc(O)cc(-c3nc4c5c(nc(OC[C@@]67CCCN6C[C@H](F)C7)nc5c3F)N[C@@H](CO)CO4)c12` [Example 124, 5-ethyl-6-fluoro-4-[(9S)-4-fluoro-2-{[(2R,7aS)-2-fluorotetrahydro-1H-pyrrolizin-7a(5H)-yl]methoxy}-9-(hydroxymethyl)-9,10-dihydro-8H-7-oxa-1,3,6,10-tetraazacyclohepta[1,2,3-de]naphthalen-5-yl]naphthalen-2-ol]: the half-maximal inhibitory concentration (IC50) in the assay with SW620 (KRAS G12V) is 3320 nM; in the assay on AGS (G12D), 3310 nM; in the assay with GP2D (KRAS G12D), 1760 nM.
Regarding `C#Cc1c(F)ccc2cc(O)cc(-c3nc4c5c(nc(OC[C@@]67CCCN6C[C@H](F)C7)nc5c3F)N(CC(F)F)[C@@H](C)CO4)c12` [Example 128, 4-[(9S)-10-(2,2-difluoroethyl)-4-fluoro-2-{[(2R,7aS)-2-fluorotetrahydro-1H-pyrrolizin-7a(5H)-yl]methoxy}-9-methyl-9,10-dihydro-8H-7-oxa-1,3,6,10-tetraazacyclohepta[1,2,3-de]naphthalen-5-yl]-5-ethynyl-6-fluoronaphthalen-2-ol], the values for the IC50 in the assay on SW620 (KRAS G12V), with AGS (G12D) and with GP2D (KRAS G12D) were 6.31 nM, 14.6 nM and 5.8 nM, respectively.
With `C#Cc1c(F)ccc2cc(O)cc(-c3nc4c5c(nc(OC[C@@]67CCCN6C[C@H](F)C7)nc5c3F)N(C)C3(CCOC3)CO4)c12` (stereo partly drawn) [Example 129, 5-ethynyl-6-fluoro-4-[6-fluoro-3-[[(2R,8S)-2-fluoro-1,2,3,5,6,7-hexahydropyrrolizin-8-yl]methoxy]-13-methyl-spiro[10-oxa-2,4,8,13-tetrazatricyclo[7.4.1.05,14]tetradeca-1,3,5,7,9 (14)-pentaene-12,3′-tetrahydrofuran]-7-yl]naphthalen-2-ol], the IC50 with SW620 (KRAS G12V), in the assay with AGS (G12D) and with GP2D (KRAS G12D) was greater than 3000 nM each time.
For `C#Cc1c(F)ccc2cc(O)cc(-c3nc4c5c(nc(OC[C@@]67CCCN6C[C@H](F)C7)nc5c3F)N(C[C@@H](C)O)[C@@H](C)CO4)c12` [Example 130, 5-ethynyl-6-fluoro-4-((S)-4-fluoro-2-(((2R,7aS)-2-fluorotetrahydro-1H-pyrrolizin-7a(5H)-yl)methoxy)-10-((R)-2-hydroxypropyl)-9-methyl-9,10-dihydro-8H-7-oxa-1,3,6,10-tetraazacyclohepta[de]naphthalen-5-yl)naphthalen-2-ol], the IC50 with SW620 (KRAS G12V) stood at 131 nM; with AGS (G12D) it was 197 nM; in the assay on GP2D (KRAS G12D) it was 115 nM.
In the case of `CCc1c(F)ccc2cc(O)cc(-c3nc4c5c(nc(OC[C@@]67CCCN6C[C@H](F)C7)nc5c3F)N(CC(F)F)[C@@H](C)CO4)c12` [Example 131, 4-[(9S)-10-(2,2-difluoroethyl)-4-fluoro-2-{[(2R,7aS)-2-fluorotetrahydro-1H-pyrrolizin-7a(5H)-yl]methoxy}-9-methyl-9,10-dihydro-8H-7-oxa-1,3,6,10-tetraazacyclohepta[1,2,3-de]naphthalen-5-yl]-5-ethyl-6-fluoronaphthalen-2-ol], the IC50 was 42.7 nM in the assay with SW620 (KRAS G12V), 65.3 nM in the assay on AGS (G12D) and 23.9 nM in the assay on GP2D (KRAS G12D).
With `CCc1c(F)ccc2cc(O)cc(-c3nc4c5c(nc(OC[C@@]67CCCN6C[C@H](F)C7)nc5c3F)N(C)C3(CCOC3)CO4)c12` (stereo partly drawn) [Example 132, 5-ethyl-6-fluoro-4-(4-fluoro-2-{[(2R,7aS)-2-fluorotetrahydro-1H-pyrrolizin-7a(5H)-yl]methoxy}-10-methyl-8H,10H-spiro[7-oxa-1,3,6,10-tetraazacyclohepta[1,2,3-de]naphthalene-9,3′-oxolan]-5-yl)naphthalen-2-ol], the figures for the IC50 in the assay with SW620 (KRAS G12V), in the assay with AGS (G12D) and in the assay with GP2D (KRAS G12D) were 1380 nM, greater than 3000 nM and greater than 3000 nM, respectively.
